Among the data in US12590108B2, “Boracic acid compound” (Phaeno Therapeutics Co., Ltd, priority 2020, dated 2026) are MIC values, retold here.

SMILES strings stand for the structures.

Common to all, as to experiment: MIC shift, liquid microdilution, meropenem fixed at 4 μg/mL
Assay type in all cases: cell-based

Assay [1] deals with Escherichia coli ARLG-2829 (NDM-5, OXA-1). The settings on record: compound + meropenem fixed at 4 μg/mL; E. coli ARLG-2829 (urine clinical isolate), NDM-5, OXA-1. The method, then: (§1) The test compound was tested for minimum inhibitory concentration against three strains of Klebsiella pneumoniae ATCC BAA-1705 (KPC-2), ATCC BAA-2470 (NDM-1), and ARLG-1196 (CTM-1 group, SHV, NDM, TEM), and one strain of Escherichia coli ARLG-2829 (NDM-5, OXA-1). According to the requirements of the Institute of Clinical And Laboratory Standard (CLSI), the minimum inhibitory concentration (MIC) of each drug combination was determined by liquid microdilution method under the premise of fixing the concentration of meropenem at 4 μg/mL.
(§2) Preparation of compound mother plate: On the day of the experiment, the compound to be tested (the final concentration was 0.3125 to 20 μg/mL) and meropenem (the final concentration ranged from 1 to 64 μg/mL) were dissolved in a corresponding solvent (sterile ddH2O or DMSO) to form 100× mother liquors with the highest test concentration, and the compound to be tested and meropenem were then subjected to 2-fold series gradient dilution in a V-bottom 96-well plate to obtain 100× working solutions with the final concentration.
(§3) Preparation of inoculation solution: Fresh bacterial clones were picked from an overnight Mueller Hinton II Agar medium (MHA, Cat. No. 211438, BD BBLTM) plate, suspended in sterilized physiological saline, and adjusted to a concentration of 1×10^8 CFU/mL, and the suspension was further diluted to 5-10^5 CFU/mL with Cation-Adjusted Mueller Hinton II Broth (MHB, Catalog #212332, BD BBLTM).
(§4) Detection of minimum inhibitory concentration (MIC): 1 μL of the compound to be tested and the meropenem working solution were transferred to the corresponding wells to be tested in a round-bottomed 96-well plate (Catalog #3788, Corning), and 98 μL of the inoculation solution was added to the round-bottomed 96-well plate containing drugs, which was an MIC test plate; and after the plate was inverted and cultured at 37° C. for 20-24 h, the MIC value was read, and the minimum inhibitory concentration for inhibiting bacterial growth was defined as MIC.

The subject of assay [2] is Klebsiella pneumoniae ARLG-1196 (CTM-1 group, SHV, NDM, TEM). The settings on record: compound + meropenem fixed at 4 μg/mL; K. pneumoniae ARLG-1196, CTM-1 and isoforms thereof, SHV, NDM, TEM. The protocol: as §1, §2, §3, §4
The subject of assay [3] is Klebsiella pneumoniae ATCC BAA-1705 (KPC-2). The settings on record: compound + meropenem fixed at 4 μg/mL; K. pneumoniae ATCC BAA-1705, KPC-2. The protocol:
as §1, §2, §3, §4

Assay [4] deals with Klebsiella pneumoniae ATCC BAA-2470 (NDM-1). The settings on record: compound + meropenem fixed at 4 μg/mL; K. pneumoniae ATCC BAA-2470, NDM-1. The method, then:
as §1, §2, §3, §4

Usually MIC stands for the least concentration at which growth counts as inhibited. As for `O=C(O)c1c(OCC2CC2)ccc2c1O[B-](O)(O)CO2` [Compound 20], the MIC in assay [1] worked out at 2.5 µg/mL; in assay [2], 2.5 µg/mL; in assay [3] it was 1.25 µg/mL; in assay [4], 2.5 µg/mL.

Turning to `Cc1ccc2c(c1C(=O)O)O[B-](O)(O)CO2` [Compound 17], the minimal inhibitory concentration (MIC) in assay [1] was 20 µg/mL; in assay [2], 10 µg/mL; in assay [3] it was not above 0.3125 µg/mL; in assay [4], 10 µg/mL.

`COc1c(Cl)c(Cl)c2c(c1C(=O)O)OB(O)CO2` [Compound 12]: the MIC in assay [1] came to 10 µg/mL; in assay [2], 2.5 µg/mL; in assay [3] it was 0.06 µg/mL; in assay [4] it was 5 µg/mL.

`O=C(O)c1c2c(cc3c1O[B-](O)(O)CO3)CCCO2` [Compound 14]: the MIC is 10 µg/mL in assay [1], 2.5 µg/mL in assay [2], not above 0.3125 µg/mL in assay [3] and 5 µg/mL in assay [4].

On to `O=C(O)c1c(OC2COC2)ccc2c1O[B-](O)(O)CO2` [Compound 23], for which the MIC is 5 µg/mL in assay [1], 1.25 µg/mL in assay [2], 0.625 µg/mL in assay [3] and 1.25 µg/mL in assay [4].

As to `CC1(C)Oc2ccc(F)c(C(=O)O)c2OB1O` [Compound 1], the MIC was more than 20 µg/mL in assay [1], more than 20 µg/mL in assay [2], 0.0625 µg/mL in assay [3] and more than 20 µg/mL in assay [4].

On to `COc1cc2c(c(C(=O)O)c1F)O[B-](O)(O)CO2` [Compound 16], for which the minimum inhibitory concentration (MIC) in assay [1] amounted to 10 µg/mL; in assay [2], 5 µg/mL; in assay [3], 0.625 µg/mL; in assay [4], 5 µg/mL.

As for `COB1COc2ccc(F)c(C(=O)O)c2O1` [Compound 9], the MIC is more than 20 µg/mL in assay [1], more than 20 µg/mL in assay [2], not above 0.3125 µg/mL in assay [3] and more than 20 µg/mL in assay [4].

As for `COB1Oc2c(ccc(F)c2C(=O)O)OC1(C)C` [Compound 2], the MIC was more than 20 µg/mL in assay [1], more than 20 µg/mL in assay [2], 20 µg/mL in assay [3] and more than 20 µg/mL in assay [4].

For `COc1cc(Cl)c2c(c1C(=O)O)OB(O)CO2` [Compound 11], the MIC in assay [1] was 10 µg/mL; in assay [2], 2.5 µg/mL; in assay [3], not above 0.03 µg/mL; in assay [4] it was 2.5 µg/mL.

Turning to `O=C(O)c1c(Cl)ccc2c1OB(O)CO2` [Compound 5], the minimum inhibitory concentration (MIC) was more than 20 µg/mL in assay [1], 10 µg/mL in assay [2], not above 0.3125 µg/mL in assay [3] and 20 µg/mL in assay [4].

For the compound `COc1ccc2c(c1C(=O)O)OB(O)CO2` [Compound 3], the MIC is 5 µg/mL in assay [1], 2.5 µg/mL in assay [2], not above 0.3125 µg/mL in assay [3] and 5 µg/mL in assay [4].

In the case of `O=C(O)c1ccc(Cl)c2c1OB(O)CO2` [Compound 7], the MIC in assay [1] is more than 20 µg/mL; in assay [2] it was 20 µg/mL; in assay [3], not above 0.03 µg/mL; in assay [4], 20 µg/mL.

Take `O=C(O)c1c(F)c(F)cc2c1OB(O)CO2` [Compound 6]: the minimal inhibitory concentration (MIC) in assay [1] is 20 µg/mL; in assay [2] it was 10 µg/mL; in assay [3], not above 0.03 µg/mL; in assay [4], 10 µg/mL.

On to `O=C(O)c1c(F)ccc2c1OB(O)CO2` [Compound 8], for which the minimum inhibitory concentration (MIC) in assay [1] is 20 µg/mL; in assay [2], 10 µg/mL; in assay [3], not above 0.3125 µg/mL; in assay [4], 20 µg/mL.

With `O=C(O)c1c(F)cc(Cl)c2c1OB(O)CO2` [Compound 4], the MIC was 10 µg/mL in assay [1], 2.5 µg/mL in assay [2], not above 0.03 µg/mL in assay [3] and 2.5 µg/mL in assay [4].

With `CCCOc1ccc2c(c1C(=O)O)O[B-](O)(O)CO2` [Compound 29], the MIC in assay [1] came out at 5 µg/mL; in assay [2] it was 1.25 µg/mL; in assay [3], 0.625 µg/mL; in assay [4] it was 2.5 µg/mL.

For the compound `O=C(O)c1cc(F)cc2c1OB(O)CO2` [Compound 10], the minimum inhibitory concentration (MIC) is 10 µg/mL in assay [1], 2.5 µg/mL in assay [2], not above 0.03 µg/mL in assay [3] and 5 µg/mL in assay [4].
